Key:
Format in all cases: in vivo, mice
dry eye model [1] = experiment: Fluorescein staining score (corneal damage), dry eye model by systemic erlotinib (Example 3); conditions: 0.003% (w/v) apocynin eye drop twice a day, one week after start, FIG. 6
Description: (§1) After acclimating male C57BL6 mice (7 weeks old) to the experimental environment, those with almost uniform body weight values and no eye abnormalities were divided into the following 3 groups (n=4). • 7 weeks old/normal (non-dry eye group) • 7 weeks old/dry eye model+control (solvent eye drop) group • 7 weeks old/dry eye model+apocynin eye drop group The dry eye model was prepared by dissolving erlotinib at a concentration of 5 mg/ml in 0.5% methylcellulose solution and administering it by intraperitoneal injection at a concentration of 50 mg/kg/day daily from the start of the study. The solvent 0.5% methylcellulose solution was similarly administered to the normal non-administration group. After one week of administration of erlotinib, the control group received PBS alone, and the test group received a solution of 0.003% (w/v) apocynin suspended in PBS twice a day at both eyes with 3 μL each. One week after the start of instillation, 1 μL of 0.1% sodium fluorescein solution was instilled into each of both eyes under isoflurane anesthesia, and the BUT test was performed under a blue filter using a slit lamp (Kowa Co., Ltd., SL-17) (FIG. 5). In Example 3, one week after the start of apocynin instillation, photographs were taken under isoflurane anesthesia, and the degree of corneal damage was scored (FIG. 6).

dry eye model [2] = experiment: Fluorescein staining score, 0.2% benzalkonium chloride dry eye model, Comparative Study 2 (Example 5)
Description: (§2) After acclimating male C57BL6 mice (7 weeks old) to the experimental environment, those with almost uniform weight values and no eye abnormalities were divided into the following groups (n=3 to 4). • 7 weeks old/normal (non-dry eye group) • 7 weeks old/dry eye model+control (solvent eye drop) group • 7 weeks old/dry eye model+0.003% (w/v) apocynin eye drop group • 7 weeks old/dry eye model+0.03% (w/v) apocynin eye drop group • 7 weeks old/dry eye model+3% diquafosol sodium eye drop group • 7 weeks old/dry eye model+0.5% (w/v) hyaluronic acid eye drop group A dry eye model was created by instilling 3 μL of the 0.2% benzalkonium chloride solution into each of both eyes twice a day for 8 days. Then, the control group received PBS alone, and the test group received 0.003% (w/v), 0.03% (w/v) apocynin and 0.5% (w/v) hyaluronic acid in PBS. The 3% diquafosol sodium eye drop was instilled into each of both eyes at 3 μL, twice a day for 9 days. In Example 5, 1, 2, 5, and 9 days after the start of instillation of the comparative test drug, 1 μL of 0.1% sodium fluorescein solution was instilled into each of both eyes. Fluorescein-stained images were observed under a blue filter using a slit lamp (Kowa Co., Ltd., SL-17), and the degree of corneal epithelial damage was scored.

dry eye model [3] = experiment: Tear film breakup time (BUT) test, dry eye model by systemic (intraperitoneal) erlotinib (Example 3); conditions: 0.003% (w/v) apocynin in PBS, 3 μL twice a day, one week after start; erlotinib 50 mg/kg/day i.p. model; FIG. 5
Description: as §1, with “5).” for “5). In Example 3, one week after the start of apocynin instillation, photographs were taken under isoflurane anesthesia, and the degree of corneal damage was scored (FIG. 6).”

dry eye model [4] = experiment: Schirmer test (tear volume), 0.2% benzalkonium chloride dry eye model, Comparative Study 2 (Example 5); conditions: 2 days after start, compared to hyaluronic acid and diquafosol sodium groups, FIG. 10
Description: as §2, with “Two” for “In Example 5, 1, 2, 5, and 9”, “the Schirmer test” for “1 μL of 0.1% sodium fluorescein solution”, “performed to evaluate” for “instilled into each of both eyes. Fluorescein-stained images were observed under a blue filter using a slit lamp (Kowa Co., Ltd., SL-17), and”, “tear volume.” for “degree of corneal epithelial damage was scored.”

dry eye model [5] = experiment: Fluorescein staining score, benzalkonium chloride dry eye model, Comparative Study 1 (Example 4)
Description: After acclimating male C57BL6 mice (7 weeks old) to the experimental environment, those with almost uniform weight values and no eye abnormalities were divided into the following groups (n=4). • 7 weeks old/normal (non-dry eye group) • 7 weeks old/dry eye model+control (solvent eye drop) group • 7 weeks old/dry eye model+0.1% (w/v) apocynin eye drop group • 7 weeks old/dry eye model+0.5% (w/v) hyaluronic acid eye drop group A dry eye model was prepared by instilling the benzalkonium chloride solution at 3 μL each eye, twice a day for 8 days. After that, the control group received the 0.5% methylcellulose solution alone, and the test group received 0.1% (w/v) apocynin or 0.5% (w/v) hyaluronic acid suspended in the 0.5% methylcellulose solution twice a day for 15 days at 3 μL for each of both eyes. In Example 4, 1, 3, 6, 8, and 15 days after the start of instillation of the comparative test drug, 1 μL of the 0.1% fluorescein sodium solution was instilled into each of both eyes. Fluorescein-stained images were observed under a blue filter using a slit lamp (Kowa Co., Ltd., SL-17), and the degree of corneal epithelial damage was scored.

## COc1cc(C(C)=O)ccc1O [apocynin, 4-hydroxy-3-methoxyacetophenone]
Dry eye model [1]
  corneal epithelial damage (fluorescein staining score): significantly improved
Dry eye model [2]; 0.003% apocynin eye drop, 9 days after start, compared to control, hyaluronic acid and diquafosol sodium groups, FIG. 11B
  fluorescein staining score (corneal epithelial damage): significantly improved
Dry eye model [2]; 0.03% apocynin eye drop, 9 days after start, compared to control, hyaluronic acid and diquafosol sodium groups, FIG. 11B
  fluorescein staining score (corneal epithelial damage): significantly improved
Dry eye model [2]; two days after start, compared with control, 0.03% apocynin, 0.5% (w/v) hyaluronic acid or 3% diquafosol sodium twice a day, FIG. 11A
  fluorescein staining score (corneal epithelial damage): decreased significantly
Dry eye model [3]
  tear film breakup time (BUT): significantly improved
Dry eye model [4]; 0.003% apocynin eye drop
  tear volume (Schirmer test): significantly improved
Dry eye model [4]; 0.03% apocynin eye drop
  tear volume (Schirmer test): significantly improved
Dry eye model [5]; 3 days after start of instillation, compared to control, 0.1% (w/v) apocynin or 0.5% (w/v) hyaluronic acid twice a day, FIG. 9A
  fluorescein staining score (corneal damage): significantly reduced
Dry eye model [5]; 15 days after start of instillation, 0.1% (w/v) apocynin twice a day, FIG. 9B
  fluorescein staining score (corneal damage): significant decrease

— patent US20230338307A1, “PROPHYLACTIC AGENT, AMELIORATING AGENT, AND THERAPEUTIC AGENT FOR DRY EYE” (TSUBOTA LABORATORY, INC., priority 2020, published 2023)
